Results from patent publication US12605390B2, “Treatment of cancer and inhibition of metastasis” (Celex Oncology Innovations Limited, priority 2017, dated 2026).
Where two headings read alike, the source gives them in different places.

Tests used:
MDA-MB-231 cells [1] = assay: MTT proliferation assay; type: cell-based, human; conditions: 48 hours; for effect on cell proliferation versus negative controls: 10 μM, hypoxic and normoxic conditions
Protocol: Cells were plated at 2×10^4 cells/ml in 24-well plates (Becton-Dickinson) and allowed to settle overnight. The cells were then treated for the required time of incubation (24 hours+), with medium changes every 24 hours. At the end of the treatment, the medium was removed, and this was followed by the colorimetric 3-[4,5-dimethylthiazol-2-yl]-2,5-diphenyltetrazolium bromide ([…]) assay (Grimes et al., 1995). Briefly, 0.1 ml MU (5 mg/ml made up in the growth medium) and 0.4 ml growth medium was added in each well and the plate was incubated for 3-4 hours at 37° C. The medium was then removed from the chambers and replaced with 0.5 ml dimethyl sulfoxide (DMSO) and 0.063 ml glycine buffer (0.1 M glycine and 0.1 M NaCl; pH 10.5). Absorbance at 570 nm was determined 15 minutes after the addition of the glycine buffer. Results were calculated as means of nine repeats of each of the treatment vs. control spectrophotometer readings from individual invasion wells.
Proliferation was indirectly measured using MTT (3-(4,5-dimethylthiazolyl-2)-2,5-diphenyltetrazolium). In principle, MTT is taken up and processed by metabolically active cells, which produce formazan as a by-product. Formazan is a purple dye which can be quantified on a spectrophotometer, providing a link between absorbance readings (570 nm) and cell number.
Cells were plated in 24-well plates at a density of 2×10^4 cells per well and pre-treated with 1 ml of the respective drug solutions (see FIG. 5.) for 48 hours in hypoxia and normoxia. 0.1 ml of MU (1 mg/ml) diluted in 0.4 ml of media was administered to each well, followed by 4 hours of incubation in dark, normoxic conditions (MU is light—sensitive). The solution was subsequently aspirated and 0.5 ml of 99.9% DMSO was added in combination with 75 μL glycine buffer. The dye was able to dissolve in DMSO during a 15 minute—incubation on a shaking platform at 150 cycles/minute. The absorbance was read using ELX800 Universal Microplate Reader (BioTek Instruments) with the background measuring 0.04. […]

MDA-MB-231 cells [2] = assay: Matrigel invasion assay under hypoxia; type: cell-based, human
Protocol: This assay is an extension of the transverse migration assay described above. To “invade”, the cells need both (i) to move as in the transverse migration assay and (ii) secrete a proteolytic enzyme to digest their surroundings. The ability of cells to invade neighbouring tissues by enzyme secretion was therefore assessed by using a layer of Matrigel™ (BD Biosciences) spread across the porous membrane of a Transwell® insert.
50 μl Matrigel™ was seeded at a 1:7 dilution (10 mg/ml stock) onto the inserts and left overnight. Prior to seeding with the cells the Matrigel™ was rehydrated using medium with no additions. This medium was removed prior to seeding the cells.
Cells were plated in a 1-5% FBS chemotactic gradient overnight (12 hours).
Invaded cells were fixed for 15 minutes with ice-cold methanol. […] The inserts were swabbed again and then washed in water and allowed to dry. Cells were then counted using twelve separate fields of view per insert (×200 magnification). If the difference in the average number of cells invading the two control inserts was more than 40%, the experiment was rejected.
The matrigel solidified at 37° C. normoxia overnight and was hydrated at 37° C. normoxia for 3 hours using 0.5 ml FBS-free media. 300 μL of media containing 5% FBS was administered to the lower chamber and the same amount of media containing 1% FBS was added to the upper chamber (transwell filters). 2×10^4 cells were added to the 1% solution, allowing their invasion through the matrigel along the chemotactic gradient. Cells were left to settle and invade under hypoxic conditions overnight.

MDA-MB-231 cells [3] = type: cell-based, human; conditions: 20 μM, 48 hours
Protocol: Cells were seeded at a density of 5×10^4 cells/ml in 35 mm Falcon tissue culture dishes. After treatment with a given drug, the medium was removed and replaced with 800 μl of growth medium and 200 μl 0.4% trypan blue (Sigma, Dorset, UK) and incubated for 10 minutes in the incubator. The trypan blue was removed and the cells were washed once with 3 ml growth medium. For each treatment, cells from 30 random fields of view were counted under 100× magnification. The number of dead cells, stained blue, was counted in each field of view. The data were expressed as percentages of living cells out of the total number of cells in given fields of view. The percentages were averaged and differences between control and treatment were compared from at least three independent experiments.
Cell viability and therefore drug toxicity was determined using the trypan blue assay. The procedure follows the principle that viable cells surrounded by an intact double membrane cannot absorb the trypan blue dye, whereas dead and fragmented cells can. […]
The solution was subsequently replaced with 0.2 ml of 0.4% trypan blue (Sigma-Aldrich) and 0.8 ml of media. […] Cell viability was determined by counting the proportion of viable and dead cells in 30 fields of view on each dish (Zeiss Axiovert 25 phase contrast microscope, ×40 magnification).

neonatal Nav1.5 = assay: Immunocytochemistry of nNav1.5 protein expression in MDA-MB-231 cells; type: cell-based, human; conditions: 10 μM, 24 hour treatment, normoxic and hypoxic conditions
Protocol: Cells were pre-treated with either 10 μM Eleclazine or DMSO in both normoxic and hypoxic conditions for 24 hours. The following day, round 13 mm coverslips were placed into 24-well plates and incubated with 0.5 ml poly-L-lysine for 20 minutes. The solution was aspirated and 2×10^4 pre-treated cells were added on top of each coverslip. The wells were filled up to 0.5 ml with the respective drug solutions and cells were left to settle onto the coverslips in normoxic and hypoxic conditions overnight.
Cells were washed with PBS and fixed by incubating coverslips with 0.5 ml 4% PFA (in PBS) for 15 minutes. Coverslips were then washed in PBS three times for 5 minutes. Half of the samples were permeabilised in 0.1% Saponin/PBS (4 minutes) followed by three 5 minute washes in PBS. Cells were blocked for 1 hour with 0.5 ml 5% BSA/PBS (pH 7.4). Coverslips were incubated with 70 μL NESOpAb (primary antibody specific for neonatal Nav1.5; 1:100 dilution) for 1 hour in a humidity chamber (room temperature). Three 5 minute PBS washes rinsed off residual NESOpAb and the secondary antibody (goat anti-rabbit IgG Alexa Fluor 568, 1:100 dilution) was administered for 1 hour in the dark. […]
Imaging was conducted on a Zeiss axiovert 200 inverted microscope. […] The corrected total cell fluorescence was quantified using ImageJ.

MDA-MB-231 cells [4] = assay: Lateral motility (wound heal) assay; type: cell-based, human; conditions: 10 μM, hypoxic conditions
Protocol: In order to determine lateral motility, a “wound-heal (“scratch”)” test was carried out, in which a scratch 504 of […] was made through the layer of cells, as shown in FIG. 5(b) which is a side sectional view of the cell culture dish. During the period of 24 hours following the formation of the scratch, the cells moved into the gap.
10^6 cells were plated in each 35×10 mm dish and kept in normoxic conditions to settle overnight. Each dish was marked by 15 parallel vertical lines and 3 non-overlapping horizontal lines. The media was refreshed and three wounds were made along the marked vertical lines using a 1 ml Gilson pipette tip. Floating cells were removed by 3 consecutive media washes and adherent cells were treated with 1 ml of the respective drug solution (10 μM Eleclazine/DMSO). The initial wound width (W0) was measured at 45 fixed points (where the vertical lines cross the wounds) using the graticule on a phase-contrast microscope (×10 magnification). Cells were then incubated in both normoxic and hypoxic conditions, with drug solutions being replaced every 24 hours. Wound width was measured every 12 hours and the motility of this breast cancer cell line was analysed using the “motility index” (MI=1-(Wt/W0)). A motility index of 1 accounts for complete wound closure, whereas MI=0 represents zero cell movement. […]

persistent current = target: T1, persistent current (Homo sapiens, UniProt Q14524); assay: Patch-clamp (data not shown); type: cell-based; conditions: 10 μM
T1 construct: transient and persistent sodium current, using the highly invasive human breast cancer cell line MDA-MB-231; endogenous in cells; host or cells: MDA-MB-231

MDA-MB-231 cells [5] = conditions: 24 hours

Compound: CC[N+](CC)(CC)CC [TEA]
- reduction of cell proliferation (MDA-MB-231 cells [1]; 2 mM, positive control): approximately 50%

Compound: NC1=N[C@H](O)[C@H]2[C@H]3O[C@]4(O)O[C@@H]([C@@H](O)[C@@]2(N1)[C@@H]4O)[C@]3(O)CO [TTX, tetrodotoxin, reference compound]
- effect on invasiveness (MDA-MB-231 cells [2]): decreases

Compound: O=C1c2cc(-c3ccc(OC(F)(F)F)cc3)ccc2OCCN1Cc1ncccn1 [eleclazine, 4-(pyrimidin-2-ylmethyl)-7-(4-(trifluoromethoxy)phenyl)-3,4-dihydrobenzo[f][1,4]oxazepin-5(2H)-one]
- average proportion of viable cells per field of view (MDA-MB-231 cells [3]): 99.96%
- nNav1.5 protein expression, corrected total cell fluorescence (CTCF) (neonatal Nav1.5): statistically significant reduction
- effect on cell proliferation versus negative controls (MDA-MB-231 cells [1]): no statistically significant difference
- reduction of lateral motility (MDA-MB-231 cells [4]; after 12 hours): 5%
- reduction of lateral motility (MDA-MB-231 cells [4]; after 48 hours): 30%
- effect on persistent current (persistent current): effectively blocked
- effect on invasiveness (MDA-MB-231 cells [2]; 0.5 μM, hypoxia (1% O2), 24 h pre-incubation, invasion over 16 h): does not affect invasiveness
- number of cells invading, median (interquartile range) (MDA-MB-231 cells [2]; 1 μM, hypoxia (1% O2), 24 h pre-incubation, invasion over 16 h, control 175.0 (113 & 255)): 131.5 (100 & 175)
- reduction of invasiveness (MDA-MB-231 cells [2]; 5 μM, hypoxia): approximately 50%
- effect on invasiveness (preliminary assays) (MDA-MB-231 cells [2]; 10 μM, hypoxic conditions): drastically reduced

Compound: OO [hydrogen peroxide]
- mean detachment negative pressure, change versus untreated cells (MDA-MB-231 cells [5]; 1 μM): approximately −9%
- mean detachment negative pressure, change versus untreated cells (MDA-MB-231 cells [5]; 10 μM): approximately −14%
- mean detachment negative pressure, change versus untreated cells (MDA-MB-231 cells [5]; 100 μM): approximately −20%

Compound: COc1ccccc1OCC(O)CN1CCN(CC(=O)Nc2c(C)cccc2C)CC1 (centres unmarked) [ranolazine, reference compound]
- effect on cell proliferation versus negative controls (MDA-MB-231 cells [1]): no significant effect
- effect on invasiveness (MDA-MB-231 cells [2]; 5 μM, hypoxia (1% O2), 24 h pre-incubation, invasion over 16 h): suppress invasiveness significantly
